Measurements from BindingDB's records for doi:10.1021/jm8011905 (National Taiwan University, 2009).

Molecular target: Genome polyprotein (Hepatitis C virus genotype 1b (isolate Taiwan), UniProt P29846)
Assay: Fluorescence Resonant Energy Transfer (FRET) Helicase Assay
Conditions: pH 7; 22 °C
Experimental: The enzyme was assayed the DNA helicase activity by using DNA substrate (annealed BHQ1-labeled release strand and FITC-labeled template strand) in the presence of test compound. The substrate was monitored by the fluorescence quenching of FITC. The assay mixture was added to a 384-well microplate and monitored continuously at an excitation of 485 nm and an emission of 518 nm using a Fluoroskan Ascent microplate fluorescence reader (LabSystems, VA). The original data were normalized by the formula of relative helicase activity (%). When the inhibition of helicase activity was more than 50% at a concentration of 100 uM, the IC50 values were determined by curve fitting using SigmaPlot2000 of logistic with three parameters.

Chain of Genome polyprotein (P29846 1027-1657 limits assumed): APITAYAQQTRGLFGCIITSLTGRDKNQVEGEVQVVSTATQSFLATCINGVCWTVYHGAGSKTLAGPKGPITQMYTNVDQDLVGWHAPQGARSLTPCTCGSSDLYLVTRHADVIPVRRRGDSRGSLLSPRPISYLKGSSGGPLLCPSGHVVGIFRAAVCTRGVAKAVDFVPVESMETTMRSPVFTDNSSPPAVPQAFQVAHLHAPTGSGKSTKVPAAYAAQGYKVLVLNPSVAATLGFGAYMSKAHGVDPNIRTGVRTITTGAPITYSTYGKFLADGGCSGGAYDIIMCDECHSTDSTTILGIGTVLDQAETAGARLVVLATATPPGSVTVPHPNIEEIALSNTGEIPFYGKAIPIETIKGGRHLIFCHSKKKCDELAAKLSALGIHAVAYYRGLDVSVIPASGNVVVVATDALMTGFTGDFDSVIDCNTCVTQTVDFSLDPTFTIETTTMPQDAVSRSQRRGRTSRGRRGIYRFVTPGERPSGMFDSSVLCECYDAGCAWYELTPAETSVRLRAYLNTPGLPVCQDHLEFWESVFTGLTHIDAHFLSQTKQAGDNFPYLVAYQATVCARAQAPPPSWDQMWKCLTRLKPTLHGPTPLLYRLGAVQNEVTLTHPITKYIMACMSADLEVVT

O=S(=O)(O)c1ccc(Nc2ccc([C+](c3ccc(Nc4cccc(S(=O)(=O)O)c4)cc3)c3ccc(Nc4cccc(S(=O)(=O)O)c4)cc3)cc2)cc1 [BHT, 1]
IC50: 40 µM
